Experimental data as given in article PMC5587642, “A Novel Benzocoumarin-Stilbene Hybrid as a DNA ligase I inhibitor with in vitro and in vivo anti-tumor activity in breast cancer models” (Scientific Reports, 2017).

System: MDA-MB-231 cells
Assay: Cell cycle distribution analysis (PI, FACS)
Format: cell-based, human
Conditions: 12 µM
Experimental: For the study of cell cycle distribution, cells were synchronized by serum starvation for 48 h and then grown in serum containing media in the presence or absence of 12 µM compound 19, after 0, 24 and 48 h, cells were harvested, washed twice with cold PBS and fixed with 70% ethanol. The fixed cells were washed with chilled PBS and then stained with 50 μg/mL of Propidium iodide. Cell cycle distribution was analyzed by using FACS-Calibur (BD Biosciences, San Diago, CA).

[1] = 0 h (treated and untreated cells)

## COc1cc(/C=C/c2cc(=O)oc3c2ccc2ccccc23)cc(OC)c1 [Compound 19, (E)-4-(3,5-dimethoxystyryl)-2H-benzo[h]chromen-2-one]
[1]
  Cells in G0/G1 phase: 75.12 ± 2.23%
  Cells in G2/M phase: 8.71 ± 1.57%
  Cells in S-phase: 16.18 ± 0.65%
24 h
  Cells in G0/G1 phase: 57.61 ± 0.1%
  Cells in G2/M phase: 21.48 ± 2.50%
  Cells in S phase: 20.91 ± 2.61%
48 h
  Cells in G0/G1 phase: 33.78 ± 4.77%
  Cells in G2/M phase: 32.53 ± 0.58%
  Cells in S phase: 33.7 ± 4.2%
